Tests used:
[1] = biological target: Serine/threonine-protein kinase B-raf (Homo sapiens) (UniProt P15056); assay: Inhibition of human BRAF at 500 nM by HotSpot assay relative to control
[2] = biological target: Protein-tyrosine kinase 6 (Homo sapiens) (UniProt Q13882); assay: Inhibition of human BRK at 500 nM by HotSpot assay relative to control
[3] = biological target: Hepatocyte growth factor receptor (Homo sapiens) (UniProt P08581); assay: Inhibition of human c-MET at 500 nM by HotSpot assay relative to control
Chain of Hepatocyte growth factor receptor (Homo sapiens) (P08581 whole entry): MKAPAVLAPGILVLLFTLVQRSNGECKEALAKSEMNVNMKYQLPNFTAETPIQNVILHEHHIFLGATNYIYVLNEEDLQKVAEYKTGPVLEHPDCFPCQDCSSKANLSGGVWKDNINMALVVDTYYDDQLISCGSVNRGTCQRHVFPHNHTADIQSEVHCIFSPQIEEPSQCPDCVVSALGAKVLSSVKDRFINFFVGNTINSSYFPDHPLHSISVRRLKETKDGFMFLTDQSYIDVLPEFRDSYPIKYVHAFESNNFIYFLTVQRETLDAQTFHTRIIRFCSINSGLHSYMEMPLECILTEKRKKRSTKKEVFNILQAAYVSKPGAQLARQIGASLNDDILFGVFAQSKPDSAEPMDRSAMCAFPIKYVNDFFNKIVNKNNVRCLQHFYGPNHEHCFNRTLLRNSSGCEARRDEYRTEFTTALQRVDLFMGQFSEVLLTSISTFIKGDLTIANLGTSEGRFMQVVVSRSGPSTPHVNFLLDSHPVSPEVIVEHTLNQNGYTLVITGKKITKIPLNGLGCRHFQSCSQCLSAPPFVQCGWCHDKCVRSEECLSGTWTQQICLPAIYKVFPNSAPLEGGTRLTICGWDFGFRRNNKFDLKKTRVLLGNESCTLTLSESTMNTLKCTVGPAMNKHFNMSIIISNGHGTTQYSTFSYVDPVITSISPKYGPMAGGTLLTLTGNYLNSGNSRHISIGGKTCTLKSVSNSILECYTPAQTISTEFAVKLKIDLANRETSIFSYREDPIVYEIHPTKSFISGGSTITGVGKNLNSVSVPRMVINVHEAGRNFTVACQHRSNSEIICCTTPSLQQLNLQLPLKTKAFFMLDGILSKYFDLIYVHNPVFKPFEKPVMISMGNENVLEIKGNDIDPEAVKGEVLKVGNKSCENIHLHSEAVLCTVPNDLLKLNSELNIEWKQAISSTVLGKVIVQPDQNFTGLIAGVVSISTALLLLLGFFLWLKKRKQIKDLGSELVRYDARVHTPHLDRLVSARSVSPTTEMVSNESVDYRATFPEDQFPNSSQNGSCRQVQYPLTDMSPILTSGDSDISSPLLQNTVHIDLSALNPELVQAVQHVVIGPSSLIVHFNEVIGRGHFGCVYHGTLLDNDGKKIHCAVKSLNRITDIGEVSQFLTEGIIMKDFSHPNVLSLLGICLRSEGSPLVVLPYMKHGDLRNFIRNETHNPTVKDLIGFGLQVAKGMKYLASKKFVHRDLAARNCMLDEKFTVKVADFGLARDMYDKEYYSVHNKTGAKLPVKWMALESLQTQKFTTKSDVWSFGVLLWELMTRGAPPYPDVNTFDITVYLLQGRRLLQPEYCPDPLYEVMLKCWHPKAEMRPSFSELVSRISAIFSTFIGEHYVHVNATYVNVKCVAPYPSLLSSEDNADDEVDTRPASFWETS

[4] = biological target: Dual specificity protein kinase CLK3 (Homo sapiens) (UniProt P49761); assay: Inhibition of human CLK3 at 500 nM by HotSpot assay relative to control
Chain of Dual specificity protein kinase CLK3 (Homo sapiens) (P49761 whole entry, looked up): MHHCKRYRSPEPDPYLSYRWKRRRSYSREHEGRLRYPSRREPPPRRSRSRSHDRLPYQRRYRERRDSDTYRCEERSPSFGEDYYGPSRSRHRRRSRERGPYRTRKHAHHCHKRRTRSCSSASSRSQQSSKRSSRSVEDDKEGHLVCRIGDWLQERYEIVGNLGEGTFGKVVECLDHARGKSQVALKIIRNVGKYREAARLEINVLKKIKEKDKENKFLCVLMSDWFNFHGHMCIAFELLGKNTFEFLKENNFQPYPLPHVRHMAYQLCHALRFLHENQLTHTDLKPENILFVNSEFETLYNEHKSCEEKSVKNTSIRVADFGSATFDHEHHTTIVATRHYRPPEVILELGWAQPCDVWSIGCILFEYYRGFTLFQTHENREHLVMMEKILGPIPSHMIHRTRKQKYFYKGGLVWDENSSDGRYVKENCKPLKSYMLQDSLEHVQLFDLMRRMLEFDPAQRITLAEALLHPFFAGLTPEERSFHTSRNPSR

[5] = biological target: T1, Dual specificity tyrosine-phosphorylation-regulated kinase 4 (Homo sapiens) (UniProt Q9NR20); assay: Inhibition of human DYRK4 at 500 nM by HotSpot assay relative to control
T1 sequence (whole entry): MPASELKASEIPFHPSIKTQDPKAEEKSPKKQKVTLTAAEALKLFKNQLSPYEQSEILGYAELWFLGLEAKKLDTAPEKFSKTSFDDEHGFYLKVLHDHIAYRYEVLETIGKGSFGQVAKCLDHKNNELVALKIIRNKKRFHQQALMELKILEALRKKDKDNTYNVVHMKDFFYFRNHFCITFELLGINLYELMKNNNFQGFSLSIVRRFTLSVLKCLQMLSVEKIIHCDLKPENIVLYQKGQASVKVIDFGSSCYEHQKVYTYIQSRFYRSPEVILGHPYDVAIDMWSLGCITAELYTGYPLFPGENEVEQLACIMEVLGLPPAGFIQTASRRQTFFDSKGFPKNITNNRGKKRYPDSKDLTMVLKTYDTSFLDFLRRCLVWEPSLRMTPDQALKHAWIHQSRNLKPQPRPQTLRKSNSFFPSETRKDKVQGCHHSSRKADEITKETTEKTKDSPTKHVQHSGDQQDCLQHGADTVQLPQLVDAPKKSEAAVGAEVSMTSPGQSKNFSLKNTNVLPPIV

[6] = biological target: T2, Ephrin type-A receptor 8 (Homo sapiens) (UniProt P29322); assay: Inhibition of human EPHA8 at 500 nM by HotSpot assay relative to control
T2 sequence (whole entry): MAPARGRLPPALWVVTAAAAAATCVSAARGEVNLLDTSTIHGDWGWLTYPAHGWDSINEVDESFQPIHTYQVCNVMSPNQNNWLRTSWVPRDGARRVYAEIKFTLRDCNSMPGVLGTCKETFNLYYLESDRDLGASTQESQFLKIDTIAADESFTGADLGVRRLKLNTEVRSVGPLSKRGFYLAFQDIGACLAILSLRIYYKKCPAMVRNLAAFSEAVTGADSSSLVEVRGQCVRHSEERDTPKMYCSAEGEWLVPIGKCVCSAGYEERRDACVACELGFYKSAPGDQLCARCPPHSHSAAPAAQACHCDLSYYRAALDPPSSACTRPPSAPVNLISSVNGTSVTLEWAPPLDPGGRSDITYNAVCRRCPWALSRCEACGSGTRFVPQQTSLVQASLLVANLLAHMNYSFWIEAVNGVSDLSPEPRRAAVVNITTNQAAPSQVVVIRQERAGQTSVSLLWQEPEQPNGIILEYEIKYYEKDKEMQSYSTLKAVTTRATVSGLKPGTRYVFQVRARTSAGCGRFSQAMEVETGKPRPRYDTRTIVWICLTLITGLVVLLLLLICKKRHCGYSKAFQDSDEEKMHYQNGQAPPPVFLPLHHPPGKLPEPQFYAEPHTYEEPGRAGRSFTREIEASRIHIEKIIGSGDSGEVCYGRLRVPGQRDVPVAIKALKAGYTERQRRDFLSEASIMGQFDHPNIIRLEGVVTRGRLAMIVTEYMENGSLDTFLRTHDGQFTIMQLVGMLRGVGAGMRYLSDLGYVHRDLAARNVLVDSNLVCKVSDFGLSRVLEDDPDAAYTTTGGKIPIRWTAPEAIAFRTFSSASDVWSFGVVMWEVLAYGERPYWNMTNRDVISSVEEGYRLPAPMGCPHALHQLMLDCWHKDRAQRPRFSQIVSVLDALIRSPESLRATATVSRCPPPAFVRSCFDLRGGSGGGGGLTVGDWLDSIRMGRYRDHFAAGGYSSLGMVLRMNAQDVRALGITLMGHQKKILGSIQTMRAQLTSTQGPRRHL

[7] = biological target: Insulin receptor-related protein (Homo sapiens) (UniProt P14616); assay: Inhibition of human IRR at 500 nM by HotSpot assay relative to control
Chain of Insulin receptor-related protein (Homo sapiens) (P14616 27-742 limits assumed): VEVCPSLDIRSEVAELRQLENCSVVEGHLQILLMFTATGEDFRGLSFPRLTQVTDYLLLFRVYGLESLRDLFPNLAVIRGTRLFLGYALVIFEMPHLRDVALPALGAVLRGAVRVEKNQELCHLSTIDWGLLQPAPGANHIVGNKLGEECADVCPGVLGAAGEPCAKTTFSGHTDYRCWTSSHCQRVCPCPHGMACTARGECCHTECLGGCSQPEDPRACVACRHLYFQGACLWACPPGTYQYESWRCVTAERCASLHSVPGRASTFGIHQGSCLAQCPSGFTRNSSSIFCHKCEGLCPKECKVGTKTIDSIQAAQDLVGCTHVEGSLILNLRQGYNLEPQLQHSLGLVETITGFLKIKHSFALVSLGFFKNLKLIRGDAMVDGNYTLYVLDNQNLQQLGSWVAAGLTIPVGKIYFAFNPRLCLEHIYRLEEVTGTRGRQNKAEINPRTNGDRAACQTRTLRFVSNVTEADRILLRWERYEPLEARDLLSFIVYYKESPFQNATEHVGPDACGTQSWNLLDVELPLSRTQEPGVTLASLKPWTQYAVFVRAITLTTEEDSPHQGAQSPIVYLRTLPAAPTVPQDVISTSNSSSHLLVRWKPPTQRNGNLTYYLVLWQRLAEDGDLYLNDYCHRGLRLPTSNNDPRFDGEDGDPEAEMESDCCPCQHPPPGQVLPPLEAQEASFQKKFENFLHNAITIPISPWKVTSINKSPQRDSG
Chain of Insulin receptor-related protein (Homo sapiens) (P14616 747-1297 limits assumed): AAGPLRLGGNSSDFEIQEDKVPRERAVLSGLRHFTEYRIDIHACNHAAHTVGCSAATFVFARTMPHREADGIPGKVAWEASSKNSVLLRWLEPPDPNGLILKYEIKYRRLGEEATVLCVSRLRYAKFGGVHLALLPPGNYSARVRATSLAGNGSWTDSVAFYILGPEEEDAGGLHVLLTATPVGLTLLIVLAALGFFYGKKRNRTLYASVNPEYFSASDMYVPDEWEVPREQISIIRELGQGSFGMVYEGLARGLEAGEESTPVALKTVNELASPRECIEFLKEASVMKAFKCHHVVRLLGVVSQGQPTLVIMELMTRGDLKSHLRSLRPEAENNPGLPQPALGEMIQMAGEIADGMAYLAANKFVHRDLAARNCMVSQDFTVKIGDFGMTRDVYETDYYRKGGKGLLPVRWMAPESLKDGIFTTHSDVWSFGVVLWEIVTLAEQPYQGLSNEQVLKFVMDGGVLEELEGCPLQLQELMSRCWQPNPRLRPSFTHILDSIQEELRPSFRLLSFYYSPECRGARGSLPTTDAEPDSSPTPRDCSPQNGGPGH

[8] = biological target: Maternal embryonic leucine zipper kinase (Homo sapiens) (UniProt Q14680); assay: Inhibition of human MELK at 500 nM by HotSpot assay relative to control
Chain of Maternal embryonic leucine zipper kinase (Homo sapiens) (Q14680 whole entry, looked up): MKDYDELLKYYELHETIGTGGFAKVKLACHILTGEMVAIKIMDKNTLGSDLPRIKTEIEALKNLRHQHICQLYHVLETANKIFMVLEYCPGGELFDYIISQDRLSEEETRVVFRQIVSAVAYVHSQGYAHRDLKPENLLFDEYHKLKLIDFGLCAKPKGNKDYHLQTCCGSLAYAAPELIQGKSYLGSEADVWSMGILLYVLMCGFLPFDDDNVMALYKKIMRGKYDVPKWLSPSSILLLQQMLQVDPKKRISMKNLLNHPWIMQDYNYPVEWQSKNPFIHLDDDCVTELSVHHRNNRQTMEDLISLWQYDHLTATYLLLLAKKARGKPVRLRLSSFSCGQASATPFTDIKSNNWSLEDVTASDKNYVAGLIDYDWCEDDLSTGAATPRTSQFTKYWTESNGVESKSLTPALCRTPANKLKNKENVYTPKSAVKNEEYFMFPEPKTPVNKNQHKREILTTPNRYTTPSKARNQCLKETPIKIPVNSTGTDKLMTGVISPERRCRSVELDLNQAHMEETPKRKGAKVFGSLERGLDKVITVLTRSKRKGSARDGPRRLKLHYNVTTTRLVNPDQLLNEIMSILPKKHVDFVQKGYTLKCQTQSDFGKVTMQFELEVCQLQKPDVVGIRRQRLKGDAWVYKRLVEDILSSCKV

[9] = biological target: T3, Serine/threonine-protein kinase D1 (Homo sapiens) (UniProt Q15139); assay: Inhibition of human PRKD1 at 500 nM by HotSpot assay relative to control
T3 sequence (whole entry): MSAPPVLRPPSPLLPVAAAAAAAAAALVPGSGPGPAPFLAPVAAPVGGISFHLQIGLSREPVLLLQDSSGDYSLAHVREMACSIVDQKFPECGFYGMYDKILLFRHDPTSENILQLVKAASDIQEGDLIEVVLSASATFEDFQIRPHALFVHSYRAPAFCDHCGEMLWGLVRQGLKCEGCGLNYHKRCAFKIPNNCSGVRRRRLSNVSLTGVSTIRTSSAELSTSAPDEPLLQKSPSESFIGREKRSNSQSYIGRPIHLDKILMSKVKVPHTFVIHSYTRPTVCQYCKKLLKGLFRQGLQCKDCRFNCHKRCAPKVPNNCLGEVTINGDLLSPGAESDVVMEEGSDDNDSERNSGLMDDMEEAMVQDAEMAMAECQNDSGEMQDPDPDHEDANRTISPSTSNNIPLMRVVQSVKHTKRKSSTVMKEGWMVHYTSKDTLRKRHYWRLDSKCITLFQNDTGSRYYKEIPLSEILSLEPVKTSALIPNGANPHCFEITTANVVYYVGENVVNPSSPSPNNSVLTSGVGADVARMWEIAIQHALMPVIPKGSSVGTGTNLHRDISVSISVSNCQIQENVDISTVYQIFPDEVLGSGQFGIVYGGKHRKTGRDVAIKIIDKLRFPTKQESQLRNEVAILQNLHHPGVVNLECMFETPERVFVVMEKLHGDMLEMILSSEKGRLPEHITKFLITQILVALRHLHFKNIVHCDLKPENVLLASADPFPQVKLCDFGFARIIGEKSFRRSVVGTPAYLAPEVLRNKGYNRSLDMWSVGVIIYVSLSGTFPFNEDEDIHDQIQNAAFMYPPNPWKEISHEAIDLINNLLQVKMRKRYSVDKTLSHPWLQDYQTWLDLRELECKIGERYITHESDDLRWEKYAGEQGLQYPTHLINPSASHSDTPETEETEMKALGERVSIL

Chain of Protein-tyrosine kinase 6 (Homo sapiens) (Q13882 whole entry, looked up): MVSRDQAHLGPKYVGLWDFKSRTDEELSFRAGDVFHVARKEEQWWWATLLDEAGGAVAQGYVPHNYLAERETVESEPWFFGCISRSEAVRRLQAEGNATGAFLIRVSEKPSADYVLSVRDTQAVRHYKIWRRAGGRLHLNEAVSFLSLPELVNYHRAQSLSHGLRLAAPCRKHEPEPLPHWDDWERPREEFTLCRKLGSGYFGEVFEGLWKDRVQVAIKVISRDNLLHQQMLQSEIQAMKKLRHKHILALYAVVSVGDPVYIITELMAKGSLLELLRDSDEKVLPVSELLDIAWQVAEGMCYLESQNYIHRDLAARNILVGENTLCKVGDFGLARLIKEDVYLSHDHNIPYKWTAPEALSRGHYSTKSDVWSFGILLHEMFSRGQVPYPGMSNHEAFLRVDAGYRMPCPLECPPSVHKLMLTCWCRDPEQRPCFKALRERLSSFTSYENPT
Chain of Serine/threonine-protein kinase B-raf (Homo sapiens) (P15056 whole entry): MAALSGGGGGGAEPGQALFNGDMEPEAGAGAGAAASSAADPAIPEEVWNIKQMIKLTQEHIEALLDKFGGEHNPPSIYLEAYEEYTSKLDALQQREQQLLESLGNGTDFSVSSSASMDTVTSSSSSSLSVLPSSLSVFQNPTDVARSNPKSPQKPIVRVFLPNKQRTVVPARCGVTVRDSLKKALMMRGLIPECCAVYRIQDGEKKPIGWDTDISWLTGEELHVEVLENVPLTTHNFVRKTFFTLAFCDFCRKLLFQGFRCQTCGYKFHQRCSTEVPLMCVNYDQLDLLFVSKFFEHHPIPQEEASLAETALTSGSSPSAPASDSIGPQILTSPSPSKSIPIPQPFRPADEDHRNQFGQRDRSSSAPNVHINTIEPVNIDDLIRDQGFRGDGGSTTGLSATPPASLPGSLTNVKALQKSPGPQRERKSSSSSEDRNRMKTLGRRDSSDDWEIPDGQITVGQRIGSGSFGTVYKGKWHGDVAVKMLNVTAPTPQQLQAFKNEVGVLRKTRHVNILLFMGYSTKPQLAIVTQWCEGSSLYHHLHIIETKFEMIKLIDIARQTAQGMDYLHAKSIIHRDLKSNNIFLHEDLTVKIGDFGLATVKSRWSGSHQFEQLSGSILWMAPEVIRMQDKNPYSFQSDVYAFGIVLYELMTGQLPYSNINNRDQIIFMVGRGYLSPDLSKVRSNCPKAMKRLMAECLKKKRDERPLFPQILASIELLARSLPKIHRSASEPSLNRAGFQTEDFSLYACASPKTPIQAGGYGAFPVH

Structure (SMILES) | inhibition [1] [%] | inhibition [2] [%] | inhibition [3] [%] | inhibition [4] [%] | inhibition [5] [%] | inhibition [6] [%] | inhibition [7] [%] | inhibition [8] [%] | inhibition [9] [%]
Nc1n[nH]c2nnc(-c3c(-c4ccccc4)nn4ccccc34)cc12 | 4.35 | 9.19 | 5.04 | 5.1 | 4.67 | -0.31 | 4.29 | -1.59 | 31.6
Oc1n[nH]c2nnc(-c3c(-c4ccccc4)nn4ccccc34)cc12 | 3.81 | 0.52 | 4.83 | 1.04 | 4.52 | -2.05 | 13.8 | -1.3 | -0.59
